Measurements as given in ChEMBL document CHEMBL1124317, “Rationale for the synthesis and preliminary biological evaluation of highly active new antitumor nitrosoureido sugars” (J Med Chem, 1989).

What was measured:
Format in all cases: functional
Mus musculus [1] = experiment: Anti tumor activity l when treated to mice with L1210 leukemia with 0.625 mg/kg dose of compound intraperitoneally was expressed as percent of treated to control (T/C %); settings: route intraperitoneal
Mus musculus [2] = experiment: The number of L1210 leukemia mice survived after 60 days with compound injected by a dose of 2.5 mg/kg intraperitoneally; 0/8; settings: route intraperitoneal
Mus musculus [3] = experiment: The number of L1210 leukemia mice survived after 60 days with compound injected by a dose of 5 mg/kg intraperitoneally; 8/8; settings: route intraperitoneal
Mus musculus [4] = experiment: The number of Lewis lung mice survived after 60 days with compound in olive oil injected by a dose of 20 mg/kg intraperitoneally; 18/20; settings: route intraperitoneal
Mus musculus [5] = experiment: Median survival time of the non surviving mice; treated with 1.25 mg/kg of compound to mice with L1210 leukemia; 16-19
Mus musculus [6] = experiment: The number of L1210 leukemia mice survived after 60 days with compound injected by a dose of 20 mg/kg intraperitoneally; 10/10; settings: route intraperitoneal
Mus musculus [7] = experiment: The number of L1210 leukemia mice survived after 30 days with compound injected by a dose of 10 mg/kg intraperitoneally; 9/10; settings: route intraperitoneal
[8] = Mortality range of the mice with L1210 leukemia treated with 1.25 mg/kg of dose intraperitoneally with no of mice survived/no of mice treated; 0/8; settings: route intraperitoneal
Mus musculus [9] = experiment: Anti tumor activity l when treated to mice with L1210 leukemia with 1.25 mg/kg dose of compound intraperitoneally was expressed as percent of treated to control (T/C %); settings: route intraperitoneal
Mus musculus [10] = experiment: The number of L1210 leukemia mice survived after 60 days with compound injected by a dose of 2.5 mg/kg intraperitoneally; 0/10; settings: route intraperitoneal
[11] = Mortality range of the mice with B16 Melanocarcinoma treated with 30 mg/kg of dose intraperitoneally with no of mice survived/no of mice treated; 0/10; settings: route intraperitoneal
Mus musculus [12] = experiment: Anti tumor activity l when treated to mice with B16 Melanocarcinoma with 5 mg/kg dose of compound intraperitoneally was expressed as percent of treated to control (T/C %); settings: route intraperitoneal
Mus musculus [13] = experiment: The number of B16 Melanocarcinoma mice survived after 30 days with compound injected by a dose of 5 mg/kg intraperitoneally; 9/10; settings: route intraperitoneal
Mus musculus [14] = experiment: The number of L1210 leukemia mice survived after 30 days with compound injected by a dose of 1.25 mg/kg intraperitoneally; 0/8; settings: route intraperitoneal
[15] = Mortality range of the mice with L1210 leukemia treated with 0.625 mg/kg of dose intraperitoneally with no of mice survived/no of mice treated; 0/8; settings: route intraperitoneal
[16] = Mortality range of the mice with L1210 leukemia treated with 10 mg/kg of dose intraperitoneally with no of mice survived/no of mice treated; 0/8; settings: route intraperitoneal
[17] = Ratio of mice died to that of mice treated with 20 mg/kg of compound in olive oil intraperitoneally with B16 Melanocarcinoma; 0/20; settings: route intraperitoneal
Mus musculus [18] = experiment: Median survival time of the non surviving mice; treated with 20 mg/kg of compound in olive oil to mice with B16 Melanocarcinoma; 12-47
Mus musculus [19] = experiment: The number of L1210 leukemia mice survived after 30 days with compound injected by a dose of 2.5 mg/kg intraperitoneally; 0/10; settings: route intraperitoneal
Mus musculus [20] = experiment: Median survival time of the non surviving mice; treated with 2.5 mg/kg of compound to mice with L1210 leukemia; 11-14
Mus musculus [21] = experiment: Anti tumor activity l when treated to mice with B16 Melanocarcinoma with 10 mg/kg dose of compound intraperitoneally was expressed as percent of treated to control (T/C %); settings: route intraperitoneal
Mus musculus [22] = experiment: The number of B16 Melanocarcinoma mice survived after 30 days with compound injected by a dose of 30 mg/kg intraperitoneally; 10/10; settings: route intraperitoneal
Mus musculus [23] = experiment: The number of L1210 leukemia mice survived after 60 days with compound injected by a dose of 30 mg/kg intraperitoneally; 9/10; settings: route intraperitoneal
Mus musculus [24] = experiment: The number of L1210 Leukemia mice survived after 60 days with compound in olive oil injected by a dose of 20 mg/kg intraperitoneally; 7/15; settings: route intraperitoneal
Mus musculus [25] = experiment: The number of L1210 leukemia mice survived after 30 days with compound injected by a dose of 5 mg/kg intraperitoneally; 3/10; settings: route intraperitoneal
Mus musculus [26] = experiment: The number of B16 Melanocarcinoma mice survived after 60 days with compound injected by a dose of 5 mg/kg intraperitoneally; 1/10; settings: route intraperitoneal
[27] = Mortality range of the mice with L1210 leukemia treated with 5 mg/kg of dose intraperitoneally with no of mice survived/no of mice treated; 0/8; settings: route intraperitoneal
Mus musculus [28] = experiment: The number of B16 Melanocarcinoma mice survived after 60 days with compound injected by a dose of 10 mg/kg intraperitoneally; 3/10; settings: route intraperitoneal
[29] = Mortality range of the mice with L1210 leukemia treated with 2.5 mg/kg of dose intraperitoneally with no of mice survived/no of mice treated; 0/8; settings: route intraperitoneal
Mus musculus [30] = experiment: Anti tumor activity in olive oil when treated to mice with L1210 leukemia with 20 mg/kg dose of compound intraperitoneally was expressed as percent of treated to control (T/C %); settings: route intraperitoneal
Mus musculus [31] = experiment: The number of L1210 leukemia mice survived after 60 days with compound in aqueous solution injected by a dose of 20 mg/kg intraperitoneally; 6/10; settings: route intraperitoneal
Mus musculus [32] = experiment: Median survival time of the non surviving mice; treated with 0.625 mg/kg of compound to mice with L1210 leukemia; 10-12
Mus musculus [33] = experiment: The number of B16 Melanocarcinoma mice survived after 60 days with compound injected by a dose of 30 mg/kg intraperitoneally; 9/10; settings: route intraperitoneal
Mus musculus [34] = experiment: The number of B16 Melanocarcinoma mice survived after 30 days with compound injected by a dose of 10 mg/kg intraperitoneally; 10/10; settings: route intraperitoneal
[35] = Mortality range of the mice with L1210 leukemia treated with 10 mg/kg of dose intraperitoneally with no of mice survived/no of mice treated; 0/10; settings: route intraperitoneal
Mus musculus [36] = experiment: The number of Lewis lung mice survived after 30 days with compound in olive oil injected by a dose of 20 mg/kg intraperitoneally; 20/20; settings: route intraperitoneal
Mus musculus [37] = experiment: Median survival time of the non surviving mice; treated with 5 mg/kg of compound to mice with L1210 leukemia; 11-32
Mus musculus [38] = experiment: The number of B16 Melanocarcinoma mice survived after 30 days with compound injected by a dose of 20 mg/kg intraperitoneally; 10/10; settings: route intraperitoneal
Mus musculus [39] = experiment: The number of B16 melanocarcinoma mice survived after 60 days with compound in olive oil injected by a dose of 20 mg/kg intraperitoneally; 3/20; settings: route intraperitoneal
[40] = Mortality range of the mice with L1210 leukemia treated with 2.5 mg/kg of dose intra peritoneally with no of mice survived/no of mice treated; 0/10
[41] = Ratio of mice died to that of mice treated with 20 mg/kg of compound in olive oil intraperitoneally with L1210 leukemia tumor; 0/15; settings: route intraperitoneal
Mus musculus [42] = experiment: The number of L1210 leukemia mice survived after 30 days with compound injected by a dose of 2.5 mg/kg intraperitoneally; 8/8; settings: route intraperitoneal

Question: With CO[C@@H]1C[C@@H](NC(=O)N(CCCl)N=O)[C@H](O)[C@@H](CO)O1 [ECOMUSTINE] as the compound, how does the T/C (Mus musculus [1]) read?
Answer: The T/C was 125%.

Question: What about the Survivals (Mus musculus [2]) of the same compound?
Answer: The Survivals was 0.

Question: What about the Survivals (Mus musculus [3]) of the same compound?
Answer: Its Survivals is 8.

Question: And the Survivals (Mus musculus [4])?
Answer: Its Survivals is 18.

Question: What about the Median survival time (Mus musculus [5]) of the same compound?
Answer: The Median survival time was 16.9.

Question: And the Survivals (Mus musculus [6])?
Answer: The Survivals was 10.

Question: And the Survivals (Mus musculus [7])?
Answer: Its Survivals is 9.

Question: What about the Ratio [8] of the same compound?
Answer: The Ratio was 0.

Question: And the T/C (Mus musculus [9])?
Answer: The T/C was 188%.

Question: What about the Survivals (Mus musculus [10]) of the same compound?
Answer: The Survivals was 0.

Question: What about the Ratio [11] of the same compound?
Answer: The Ratio was 0.

Question: What about the T/C (Mus musculus [12]) of the same compound?
Answer: Its T/C is 203%.

Question: What about the Survivals (Mus musculus [13]) of the same compound?
Answer: Its Survivals is 9.

Question: And the “Survival after 30 days” value (Mus musculus [14])?
Answer: The value was 0.

Question: And the Ratio [15]?
Answer: Its Ratio is 0.

Question: And the Ratio [16]?
Answer: Its Ratio is 0.

Question: What about the Ratio [17] of the same compound?
Answer: Its Ratio is 0.

Question: What about the Median survival time (Mus musculus [18]) of the same compound?
Answer: The Median survival time was 33.33.

Question: And the Survivals (Mus musculus [19])?
Answer: Its Survivals is 0.

Question: And the Median survival time (Mus musculus [20])?
Answer: Its Median survival time is 12.9.

Question: And the T/C (Mus musculus [21])?
Answer: Its T/C is 233%.

Question: What about the Survivals (Mus musculus [22]) of the same compound?
Answer: Its Survivals is 10.

Question: What about the Survivals (Mus musculus [23]) of the same compound?
Answer: The Survivals was 9.

Question: And the Survivals (Mus musculus [24])?
Answer: The Survivals was 7.

Question: And the Survivals (Mus musculus [25])?
Answer: Its Survivals is 3.

Question: And the Survivals (Mus musculus [26])?
Answer: The Survivals was 1.

Question: And the Ratio [27]?
Answer: The Ratio was 0.

Question: And the Survivals (Mus musculus [28])?
Answer: The Survivals was 3.

Question: And the Ratio [29]?
Answer: Its Ratio is 0.

Question: What about the T/C (Mus musculus [30]) of the same compound?
Answer: Its T/C is 644%.

Question: And the Survivals (Mus musculus [31])?
Answer: Its Survivals is 6.

Question: What about the Median survival time (Mus musculus [32]) of the same compound?
Answer: The Median survival time was 11.25.

Question: What about the Survivals (Mus musculus [33]) of the same compound?
Answer: Its Survivals is 9.

Question: And the Survivals (Mus musculus [34])?
Answer: The Survivals was 10.

Question: What about the Ratio [35] of the same compound?
Answer: Its Ratio is 0.

Question: What about the Survivals (Mus musculus [36]) of the same compound?
Answer: Its Survivals is 20.

Question: What about the Median survival time (Mus musculus [37]) of the same compound?
Answer: The Median survival time was 15.4.

Question: And the Survivals (Mus musculus [38])?
Answer: Its Survivals is 10.

Question: What about the Survivals (Mus musculus [39]) of the same compound?
Answer: Its Survivals is 3.

Question: What about the Ratio [40] of the same compound?
Answer: Its Ratio is 0.

Question: And the Ratio [41]?
Answer: Its Ratio is 0.

Question: And the Survivals (Mus musculus [42])?
Answer: Its Survivals is 8.
